{
  "source": "patent US11357230B2",
  "about": "“Herbicidal amides” (FMC Corporation, priority 2017, dated 2022)",
  "type_in_all_cases": "in vivo",
  "key": {"[1]": {"tested_on": "barnyardgrass (Echinochloa crus-galli)", "experiment": "Test A postemergence, barnyardgrass", "settings": "approximately 10 d", "how_it_was_run": "(§1)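 Seeds in a loam soil–sand blend got a directed preemergence soil spray, and plants in the same blend at 2–10 cm (one- to two-leaf stage) got a postemergence spray, using chemicals in a non-phytotoxic solvent mixture with surfactant. After about 10 d in a greenhouse, injury was scored visually versus untreated controls on a 0–100 scale.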"}, "[2]": {"tested_on": "blackgrass (Alopecurus myosuroides)", "experiment": "Test A postemergence, blackgrass", "settings": "approximately 10 d", "how_it_was_run": "as §1"}, "corn (Zea mays)": {"tested_on": "corn (Zea mays)", "experiment": "Test A postemergence, corn", "settings": "approximately 10 d", "how_it_was_run": "as §1"}, "[3]": {"tested_on": "foxtail, green (green foxtail, Setaria viridis)", "experiment": "Test A postemergence, green foxtail", "settings": "approximately 10 d", "source_text": "(§2) Seeds of plant species selected from barnyardgrass (Echinochloa crus-galli), kochia (Kochia scoparia), ragweed (common ragweed, Ambrosia elatior), ryegrass, Italian (Italian ryegrass, Lolium multiflorum), foxtail, green (green foxtail, Setaria viridis), and pigweed (Amaranthus retroflexus) were planted into a blend of loam soil and sand and treated preemergence with a directed soil spray using test chemicals formulated in a non-phytotoxic solvent mixture which included a surfactant. At the same time, plants selected from these weed species and also wheat (Triticum aestivum), corn (Zea mays), blackgrass (Alopecurus myosuroides), and galium (catchweed bedstraw, Galium aparine) were planted in pots containing the same blend of loam soil and sand and treated with postemergence applications of test chemicals formulated in the same manner. Plants ranged in height from 2 to 10 cm and were in the one- to two-leaf stage for the postemergence treatment. Treated plants and untreated controls were maintained in a greenhouse for approximately 10 d, after which time all treated plants were compared to untreated controls and visually evaluated for injury. Plant response ratings, summarized in Table A, are based on a 0 to 100 scale where 0 is no effect and 100 is complete control. A dash (-) response means no test result."}, "[4]": {"tested_on": "galium (catchweed bedstraw, Galium aparine)", "experiment": "Test A postemergence, galium", "settings": "approximately 10 d", "how_it_was_run": "as §1"}, "kochia (Kochia scoparia) [5]": {"tested_on": "kochia (Kochia scoparia)", "experiment": "Test A postemergence, kochia", "settings": "approximately 10 d", "how_it_was_run": "as §1"}, "[6]": {"tested_on": "pigweed (Amaranthus retroflexus)", "experiment": "Test A postemergence, pigweed", "settings": "approximately 10 d", "how_it_was_run": "as §1"}, "[7]": {"tested_on": "ragweed (common ragweed, Ambrosia elatior)", "experiment": "Test A postemergence, ragweed", "settings": "approximately 10 d", "how_it_was_run": "as §1"}, "[8]": {"tested_on": "ryegrass, Italian (Italian ryegrass, Lolium multiflorum)", "experiment": "Test A postemergence, Italian ryegrass", "settings": "approximately 10 d", "how_it_was_run": "as §1"}, "[9]": {"tested_on": "wheat (Triticum aestivum)", "experiment": "Test A postemergence, wheat", "settings": "approximately 10 d", "how_it_was_run": "as §1"}, "[10]": {"tested_on": "barnyardgrass (Echinochloa crus-galli)", "experiment": "Test A preemergence, barnyardgrass", "settings": "approximately 10 d", "how_it_was_run": "(§3)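 Scores are visual injury ratings, 0 (no effect) to 100 (complete control), taken about 10 d post-spray against untreated pots. The preemergence treatment was a directed soil spray on seeded loam–sand mix.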"}, "[11]": {"tested_on": "foxtail, green (green foxtail, Setaria viridis)", "experiment": "Test A preemergence, green foxtail", "settings": "approximately 10 d", "source_text": "as §2"}, "kochia (Kochia scoparia) [12]": {"tested_on": "kochia (Kochia scoparia)", "experiment": "Test A preemergence, kochia", "settings": "approximately 10 d", "how_it_was_run": "as §3"}, "[13]": {"tested_on": "pigweed (Amaranthus retroflexus)", "experiment": "Test A preemergence, pigweed", "settings": "approximately 10 d", "how_it_was_run": "as §3"}, "[14]": {"tested_on": "ragweed (common ragweed, Ambrosia elatior)", "experiment": "Test A preemergence, ragweed", "settings": "approximately 10 d", "how_it_was_run": "as §3"}, "[15]": {"tested_on": "ryegrass, Italian (Italian ryegrass, Lolium multiflorum)", "experiment": "Test A preemergence, Italian ryegrass", "settings": "approximately 10 d", "how_it_was_run": "as §3"}, "[16]": {"tested_on": "barnyardgrass (Echinochloa crus-galli)", "experiment": "Test B flooded paddy test, barnyardgrass", "settings": "250 g ai/ha, Flood (paddy water), 13 to 15 d", "how_it_was_run": "(§4)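 Plants grown to the 2-leaf stage. At treatment, pots were flooded to 3 cm above the soil, compound was applied directly to the paddy water, and that depth was held throughout. After 13 to 15 d in the greenhouse, response was rated visually against controls on a 0 (no effect) to 100 (complete control) scale.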"}, "[17]": {"tested_on": "ducksalad (Heteranthera limosa)", "experiment": "Test B flooded paddy test, ducksalad", "settings": "250 g ai/ha, Flood (paddy water), 13 to 15 d", "how_it_was_run": "as §4"}, "rice (Oryza sativa)": {"tested_on": "rice (Oryza sativa)", "experiment": "Test B flooded paddy test, rice", "settings": "250 g ai/ha, Flood (paddy water), 13 to 15 d", "how_it_was_run": "as §4"}, "[18]": {"tested_on": "sedge, umbrella (small-flower umbrella sedge, Cyperus difformis)", "experiment": "Test B flooded paddy test, umbrella sedge", "settings": "250 g ai/ha, Flood (paddy water), 13 to 15 d", "how_it_was_run": "as §4"}},
  "data": [
    {"smiles": "CN1C[C@H](c2ccc(C(F)(F)F)cc2)[C@@H](C(=O)Nc2cccc(F)c2F)C1=NN", "note": "[Compound 2, (3R,4S)—N-(2,3-difluorophenyl)-2-hydrazinylidene-1-methyl-4-[4-(trifluoromethyl)phenyl]-3-pyrrolidinecarboxamide]", "values": [
      {"measurement": "Plant response rating (0 to 100 scale, 0 is no effect, 100 is complete control)", "setting": "[1]; 31 g ai/ha", "result": 20},
      {"measurement": "Plant response rating (0 to 100 scale, 0 is no effect, 100 is complete control)", "setting": "[1]; 125 g ai/ha", "result": 60},
      {"measurement": "Plant response rating (0 to 100 scale, 0 is no effect, 100 is complete control)", "setting": "[2]; 31 g ai/ha", "result": 0},
      {"measurement": "Plant response rating (0 to 100 scale, 0 is no effect, 100 is complete control)", "setting": "[2]; 125 g ai/ha", "result": 30},
      {"measurement": "Plant response rating (0 to 100 scale, 0 is no effect, 100 is complete control)", "setting": "corn (Zea mays); 31 g ai/ha", "result": 10},
      {"measurement": "Plant response rating (0 to 100 scale, 0 is no effect, 100 is complete control)", "setting": "corn (Zea mays); 125 g ai/ha", "result": 10},
      {"measurement": "Plant response rating (0 to 100 scale, 0 is no effect, 100 is complete control)", "setting": "[3]; 31 g ai/ha", "result": 30},
      {"measurement": "Plant response rating (0 to 100 scale, 0 is no effect, 100 is complete control)", "setting": "[3]; 125 g ai/ha", "result": 70},
      {"measurement": "Plant response rating (0 to 100 scale, 0 is no effect, 100 is complete control)", "setting": "[4]; 31 g ai/ha", "result": 60},
      {"measurement": "Plant response rating (0 to 100 scale, 0 is no effect, 100 is complete control)", "setting": "[4]; 125 g ai/ha", "result": 60},
      {"measurement": "Plant response rating (0 to 100 scale, 0 is no effect, 100 is complete control)", "setting": "kochia (Kochia scoparia) [5]; 31 g ai/ha", "result": 0},
      {"measurement": "Plant response rating (0 to 100 scale, 0 is no effect, 100 is complete control)", "setting": "kochia (Kochia scoparia) [5]; 125 g ai/ha", "result": 0},
      {"measurement": "Plant response rating (0 to 100 scale, 0 is no effect, 100 is complete control)", "setting": "[6]; 31 g ai/ha", "result": 0},
      {"measurement": "Plant response rating (0 to 100 scale, 0 is no effect, 100 is complete control)", "setting": "[6]; 125 g ai/ha", "result": 40},
      {"measurement": "Plant response rating (0 to 100 scale, 0 is no effect, 100 is complete control)", "setting": "[7]; 31 g ai/ha", "result": 0},
      {"measurement": "Plant response rating (0 to 100 scale, 0 is no effect, 100 is complete control)", "setting": "[7]; 125 g ai/ha", "result": 0},
      {"measurement": "Plant response rating (0 to 100 scale, 0 is no effect, 100 is complete control)", "setting": "[8]; 31 g ai/ha", "result": 0},
      {"measurement": "Plant response rating (0 to 100 scale, 0 is no effect, 100 is complete control)", "setting": "[8]; 125 g ai/ha", "result": 30},
      {"measurement": "Plant response rating (0 to 100 scale, 0 is no effect, 100 is complete control)", "setting": "[9]; 31 g ai/ha", "result": 0},
      {"measurement": "Plant response rating (0 to 100 scale, 0 is no effect, 100 is complete control)", "setting": "[9]; 125 g ai/ha", "result": 0},
      {"measurement": "Plant response rating (0 to 100 scale, 0 is no effect, 100 is complete control)", "setting": "[10]; 31 g ai/ha", "result": 70},
      {"measurement": "Plant response rating (0 to 100 scale, 0 is no effect, 100 is complete control)", "setting": "[10]; 125 g ai/ha", "result": 90},
      {"measurement": "Plant response rating (0 to 100 scale, 0 is no effect, 100 is complete control)", "setting": "[11]; 31 g ai/ha", "result": 70},
      {"measurement": "Plant response rating (0 to 100 scale, 0 is no effect, 100 is complete control)", "setting": "[11]; 125 g ai/ha", "result": 100},
      {"measurement": "Plant response rating (0 to 100 scale, 0 is no effect, 100 is complete control)", "setting": "kochia (Kochia scoparia) [12]; 31 g ai/ha", "result": 0},
      {"measurement": "Plant response rating (0 to 100 scale, 0 is no effect, 100 is complete control)", "setting": "kochia (Kochia scoparia) [12]; 125 g ai/ha", "result": 60},
      {"measurement": "Plant response rating (0 to 100 scale, 0 is no effect, 100 is complete control)", "setting": "[13]; 31 g ai/ha", "result": 0},
      {"measurement": "Plant response rating (0 to 100 scale, 0 is no effect, 100 is complete control)", "setting": "[13]; 125 g ai/ha", "result": 80},
      {"measurement": "Plant response rating (0 to 100 scale, 0 is no effect, 100 is complete control)", "setting": "[14]; 31 g ai/ha", "result": 0},
      {"measurement": "Plant response rating (0 to 100 scale, 0 is no effect, 100 is complete control)", "setting": "[14]; 125 g ai/ha", "result": 40},
      {"measurement": "Plant response rating (0 to 100 scale, 0 is no effect, 100 is complete control)", "setting": "[15]; 31 g ai/ha", "result": 0},
      {"measurement": "Plant response rating (0 to 100 scale, 0 is no effect, 100 is complete control)", "setting": "[15]; 125 g ai/ha", "result": 0},
      {"measurement": "Plant response rating (scale of 0 to 100, 0 is no effect, 100 is complete control)", "setting": "[16]", "result": 40},
      {"measurement": "Plant response rating (scale of 0 to 100, 0 is no effect, 100 is complete control)", "setting": "[17]", "result": 0},
      {"measurement": "Plant response rating (scale of 0 to 100, 0 is no effect, 100 is complete control)", "setting": "rice (Oryza sativa)", "result": 0},
      {"measurement": "Plant response rating (scale of 0 to 100, 0 is no effect, 100 is complete control)", "setting": "[18]", "result": 50}
    ]}
  ]
}
